Results: patent US20260217701A1, “SELECTIVE BET INHIBITORS AND USES THEREOF” (Tay Therapeutics Limited, priority 2022, published 2026)
Where “and” joins values, the source holds several entries; their conditions need not be identical. Equal values may be shown once.

Assay: Rat PK study #3 (ABBV-744 IV 1 mg/kg and PO 5 mg/kg)
Format: in vivo, SD rats
Design: Tmax: unit: h
Details: for concentration at 0.033 h: male, Sprague-Dawley, rat, plasma, iv
Method: For the third rat pharmacokinetic study, the pharmacokinetics of ABBV-744 were assessed in male SD rats for comparison to Compound A. ABBV-744 was prepared in a formulation of 5% DMSO, 40% PEG-400, and 55% Milli-Q water (see Table 2D for formulation) and delivered to animals orally (PO) at a dose of 5 mg/kg, or intravenously (IV) at a dose of 1 mg/kg. Animals in each group (n=3) were then monitored over a 24-hour period.
Blood samples (~0.2 mL) were collected according to a schedule (IV administration: 0.033, 0.083, 0.25, 0.5, 1, 2, 4, and 8 h following the initial dosing; PO administration: 0.083, 0.25, 0.5, 1, 2, 4, 8, and 24 h following the initial dosing) by jugular vein by cannulation except for the dosing vein (for IV group), and EDTA-K2 was used as anticoagulant. Within 30 minutes of collection, the samples were centrifuged at approximately 4000 times g-force for 5 minutes at 4° C. to obtain blood plasma. The plasma samples were immediately divided into two aliquots (~75 µL each), transferred to a cryogenic vial, and stored in a freezer at −75±15° C. prior to analysis.
The concentration of ABBV-744 in plasma samples was determined by liquid chromatography-mass spectrometry (LC-MS/MS) using a Shimadzu HPLC(DGU-405; LC-40D XS CN; SIL-40C XSCN; Plate Changer CN; CTO-40C CN; and CBM-40 CN) and an AB API 5500+LC/MS/MS instrument. Samples were analyzed on an Agilent Poroshell Bonus RP 2.7 μm (50×2.1 mm) column. Solution A in the mobile phase was 95% water (0.1% formic acid) and solution B was 95% acetonitrile in water (0.1% formic acid), injection volume was 6 μL, and flow rate was 0.6 mL/min.
To prepare samples for analysis, serial concentrations were prepared by diluting the stock solution of analyte with a 50% acetonitrile in water solution. 5 μL working solutions (5, 10, 20, 50, 100, 500, 1000, 5000, and 10000 ng/mL) were added to 50 μL of the blank SD rat plasma to achieve calibration standards of ~0.5 to 1000 ng/ml (0.5, 1, 2, 5, 10, 50, 100, 500, and 1000 ng/ml) in a total volume of 55 μL. Five quality control samples at 1 ng/ml, 2 ng/ml, 5 ng/ml, 50 ng/mL, and 800 ng/ml for plasma were prepared independently of those used for the calibration curves. These QC samples were prepared on the day of analysis in the same way as calibration standards.
55 μL of standards, 55 μL of QC samples and 55 μL of unknown samples (50 μL of unknown rat plasma with 5 µL of blank solution) were added to 200 µL of acetonitrile containing IS mixture (verapamil) for precipitating protein respectively. The samples were then vortexed for 30 s. After centrifugation at 4° C., 3900 rpm for 15 min, the supernatant was diluted 3 times with water. 6 μL of diluted supernatant was injected into the LC/MS/MS system for quantitative analysis.

[1] = SD rats, IV 1 mg/kg, DMSO/PEG-400/Milli-Q water formulation, individual animals, 1 mg/kg
[2] = SD rats, IV 1 mg/kg, DMSO/PEG-400/Milli-Q water formulation, mean of 3 animals
[3] = SD rats, PO 5 mg/kg, DMSO/PEG-400/Milli-Q water formulation, individual animals, 5 mg/kg

- exposure above the free EC50 BD2 BRD4 (5 mg/kg dose): minimal
- Clinical observations (IV 1 mg/kg and PO 5 mg/kg): No clinical observations were noted
- Plasma Concentration (SD rats, IV 1 mg/kg, DMSO/PEG-400/Milli-Q water formulation, 0.033 h, individual animals, 1 mg/kg): 484 ng/mL and 489 ng/mL
- Plasma Concentration (SD rats, IV 1 mg/kg, DMSO/PEG-400/Milli-Q water formulation, 0.083 h, individual animals, 1 mg/kg): 308 ng/mL and 353 ng/mL
- Plasma Concentration (SD rats, IV 1 mg/kg, DMSO/PEG-400/Milli-Q water formulation, 0.25 h, individual animals, 1 mg/kg): 267 ng/mL and 289 ng/mL
- Plasma Concentration (SD rats, IV 1 mg/kg, DMSO/PEG-400/Milli-Q water formulation, 0.5 h, individual animals, 1 mg/kg): 217 ng/mL and 202 ng/mL
- Plasma Concentration (SD rats, IV 1 mg/kg, DMSO/PEG-400/Milli-Q water formulation, 1 h, individual animals, 1 mg/kg): 147 ng/mL and 158 ng/mL
- Plasma Concentration (SD rats, IV 1 mg/kg, DMSO/PEG-400/Milli-Q water formulation, 2 h, individual animals, 1 mg/kg): 116 ng/mL and 110 ng/mL
- Plasma Concentration (SD rats, IV 1 mg/kg, DMSO/PEG-400/Milli-Q water formulation, 4 h, individual animals, 1 mg/kg): 55.9 ng/mL and 54.8 ng/mL
- Plasma Concentration (SD rats, IV 1 mg/kg, DMSO/PEG-400/Milli-Q water formulation, 8 h, individual animals, 1 mg/kg): 18.3 ng/mL and 15.0 ng/mL
- AUCInf [1]: 750 ng·h/mL and 728 ng·h/mL
- AUC_%Extrap_obs [1]: 5.41% and 8.03% and 6.23%
- AUClast [1]: 690 ng·h/mL and 683 ng·h/mL
- C0 [1]: 652 ng/mL and 606 ng/mL
- MRTInf_obs [1]: 2.88 h and 2.61 h
- T1/2 [1]: 2.28 h and 2.09 h
- Vss_obs [1]: 3.69 L/kg and 3.84 L/kg and 3.59 L/kg
- AUC_%Extrap_obs [2]: 6.56%
- Cl_obs [2]: 23.3 mL/min/kg
- Vss_obs [2]: 3.71 L/kg
- Plasma Concentration (SD rats, PO 5 mg/kg, DMSO/PEG-400/Milli-Q water formulation, 0.083 h, individual animals, 5 mg/kg): 0.00 ng/mL and 1.03 ng/mL and 3.81 ng/mL
- Plasma Concentration (SD rats, PO 5 mg/kg, DMSO/PEG-400/Milli-Q water formulation, 0.25 h, individual animals, 5 mg/kg): 2.95 ng/mL and 6.42 ng/mL and 48.5 ng/mL
- Plasma Concentration (SD rats, PO 5 mg/kg, DMSO/PEG-400/Milli-Q water formulation, 0.5 h, individual animals, 5 mg/kg): 7.91 ng/mL and 21.1 ng/mL and 100 ng/mL
- Plasma Concentration (SD rats, PO 5 mg/kg, DMSO/PEG-400/Milli-Q water formulation, 1 h, individual animals, 5 mg/kg): 16.7 ng/mL and 41.0 ng/mL and 118 ng/mL
- Plasma Concentration (SD rats, PO 5 mg/kg, DMSO/PEG-400/Milli-Q water formulation, 2 h, individual animals, 5 mg/kg): 31.9 ng/mL and 78.0 ng/mL and 157 ng/mL
- Plasma Concentration (SD rats, PO 5 mg/kg, DMSO/PEG-400/Milli-Q water formulation, 4 h, individual animals, 5 mg/kg): 40.6 ng/mL and 101 ng/mL and 239 ng/mL
- Plasma Concentration (SD rats, PO 5 mg/kg, DMSO/PEG-400/Milli-Q water formulation, 8 h, individual animals, 5 mg/kg): 54.6 ng/mL and 70.6 ng/mL and 214 ng/mL
- Cmax [3]: 54.6 ng/mL and 101 ng/mL and 239 ng/mL
- F [3]: 22.1% and 35.2% and 97.7%
- Tmax [3]: 4.00 h
- F (SD rats, PO 5 mg/kg, DMSO/PEG-400/Milli-Q water formulation, mean of 3 animals): 51.7%
- concentration at 0.033 h (1 mg/kg, SD rats, IV 1 mg/kg, DMSO/PEG-400/Milli-Q water formulation, 0.033 h, individual animals): 475 ng/mL
- concentration at 0.033 h (1 mg/kg, SD rats, IV 1 mg/kg, DMSO/PEG-400/Milli-Q water formulation, 0.033 h, mean of 3 animals): 483 ng/mL
Structure (SMILES): CCNC(=O)c1cc2c(-c3cc(C(C)(C)O)ccc3Oc3c(C)cc(F)cc3C)cn(C)c(=O)c2[nH]1 [ABBV-744]
- Cl_obs [1]: 24.9 mL/min/kg and 22.2 mL/min/kg and 22.9 mL/min/kg
- Plasma Concentration (SD rats, PO 5 mg/kg, DMSO/PEG-400/Milli-Q water formulation, 24 h, individual animals, 5 mg/kg): 0.909 ng/mL and 1.09 ng/mL and 4.52 ng/mL
- AUClast [3]: 739 ng·h/mL and 1175 ng·h/mL and 3265 ng·h/mL
